Laboratory results reported in publication PMC7503281, “The Structure of Clostridioides difficile SecA2 ATPase Exposes Regions Responsible for Differential Target Recognition of the SecA1 and SecA2-Dependent Systems” (International Journal of Molecular Sciences, 2020).

Target: T1, CDSecA2 (Clostridioides difficile, UniProt Q183M9)
T1 construct: gene secA2; pMCSG7, E. coli BL21(DE3); His tag cut by TEV, extra N-terminal SNAAA kept; monomer in crystal
Assay: X-ray crystallography (cocrystallization)
Assay type: binding
Conditions: 2 mM ATP-γ-S, 4 mM MgCl2, pH 8.3, 20 °C; active site between NBD1 and NBD2, Walker A/B

T1 sequence (Q183M9 whole entry): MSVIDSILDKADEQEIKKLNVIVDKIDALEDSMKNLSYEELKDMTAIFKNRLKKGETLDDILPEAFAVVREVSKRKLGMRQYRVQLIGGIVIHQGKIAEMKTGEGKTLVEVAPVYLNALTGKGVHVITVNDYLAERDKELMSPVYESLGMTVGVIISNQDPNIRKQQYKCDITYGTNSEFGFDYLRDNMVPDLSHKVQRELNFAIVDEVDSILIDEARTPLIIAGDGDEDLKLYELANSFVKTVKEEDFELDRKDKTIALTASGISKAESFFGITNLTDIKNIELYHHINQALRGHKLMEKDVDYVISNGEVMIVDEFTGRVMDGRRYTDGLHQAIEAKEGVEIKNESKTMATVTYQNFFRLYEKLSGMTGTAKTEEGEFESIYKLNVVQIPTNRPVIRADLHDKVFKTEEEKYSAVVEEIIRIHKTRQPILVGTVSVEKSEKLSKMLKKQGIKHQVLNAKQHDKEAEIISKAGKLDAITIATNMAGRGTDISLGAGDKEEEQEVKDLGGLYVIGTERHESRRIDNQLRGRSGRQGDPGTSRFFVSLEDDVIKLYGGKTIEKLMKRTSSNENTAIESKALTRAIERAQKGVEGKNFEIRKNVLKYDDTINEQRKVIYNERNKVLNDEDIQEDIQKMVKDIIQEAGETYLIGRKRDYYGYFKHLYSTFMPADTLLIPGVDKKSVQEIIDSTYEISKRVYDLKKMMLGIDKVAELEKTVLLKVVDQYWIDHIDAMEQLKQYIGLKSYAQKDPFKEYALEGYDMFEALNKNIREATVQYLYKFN

For `Nc1ncnc2c1ncn2[C@@H]1O[C@H](COP(=O)(O)OP(=O)(O)OP(O)(O)=S)[C@@H](O)[C@H]1O` [ATP-γ-S, adenosine-5′-(γ-thio)-triphosphate], the “X-ray crystallography (cocrystallization)” value was “the electron density map for the ATP-γ-S ligand unambiguously positioned it in the active site”.
